Laboratory results from BindingDB's records for doi:10.7270/Q2N014XN (Srmlsc, 2007).

Target: T1, Diphosphomevalonate decarboxylase (Streptococcus pneumoniae serotype 2 (strain D39 / NCTC 7466), UniProt A0A0H2ZN59)
T1 sequence (A0A0H2ZN59 whole entry): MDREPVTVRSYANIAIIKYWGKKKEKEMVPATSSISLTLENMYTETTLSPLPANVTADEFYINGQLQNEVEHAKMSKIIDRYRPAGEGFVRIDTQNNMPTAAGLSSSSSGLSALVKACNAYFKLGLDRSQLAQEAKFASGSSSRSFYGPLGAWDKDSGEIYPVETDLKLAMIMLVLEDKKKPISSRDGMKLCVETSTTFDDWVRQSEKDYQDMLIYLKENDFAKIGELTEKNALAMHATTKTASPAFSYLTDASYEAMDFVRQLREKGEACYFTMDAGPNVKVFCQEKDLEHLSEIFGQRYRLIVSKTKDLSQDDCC
Test: S. pneumoniae DPM-DC inhibitor potency, dose response, biochemical, PK/LDH-coupled NADH fluorescence, hexokinase coupling counter-screen (AID 550)

Row | SMILES | IC50 [µM]
1 | COc1ccc(-c2cc(C(F)(F)F)n3nc(C(=O)N4CCC5(CC4)OCCO5)cc3n2)cc1OC [8-{[5-(3,4-dimethoxyphenyl)-7-(trifluoromethyl)pyrazolo[1,5-a]pyrimidin-2-yl]carbonyl}-1,4-dioxa-8-azaspiro[4.5]decane] | 75.3
2 | COC(=O)c1c(C(=O)OC)c2ccncn2c1Cl [7-Chloro-pyrrolo[1,2-c]pyrimidine-5,6-dicarboxylic acid dimethyl ester] | 26.8
3 | O=C(Nc1ccc(-c2nc3ncccc3o2)cc1)c1ccco1 [MLS000062759] | 34.9
4 | O=C1CCC(C(=O)N(Cc2ccco2)C2(C(=O)NC3CCCC3)CCCCC2)N1 (stereo not given) [MLS000090457] | > 10000
5 | CC(=NCc1ccco1)c1c(C)[nH]n(-c2nc3ccccc3s2)c1=O [(4Z)-2-(1,3-benzothiazol-2-yl)-4-[1-(furan-2-ylmethylamino)ethylidene]-5-methyl-pyrazol-3-one] | > 10000
